Measurements reported in the supplement of paper PMC10883282.

Key:
Test in all cases: relative viability vs DMSO control (72 h) (fraction); higher = more viable cells
G401 = test system: G401
Outline: (§1)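 Sarcoma cell lines were seeded in 384-well plates at densities chosen for 80–90% confluence, then 24 h later given 2.5 µl of serially diluted compound drawn from source plates spanning 10 mM to 0.0002 mM. They were held 72 h at 37 °C, 5% CO2, with 0.1% DMSO vehicle and a 5 µM positive control included. Relative viability was read with ATPLite as percent growth and averaged over up to triplicate wells. Rescaling placed full at 1 and none at 0.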

KHOS-240S = test system: KHOS-240S
Outline: as §1

SW1353 = test system: SW1353
Outline: as §1

SYO-1 = test system: SYO-1
Outline: as §1

SW982 = test system: SW982
Outline: as §1

HT1080 = test system: HT1080
Outline: as §1

KHOS-NP = test system: KHOS-NP
Outline: as §1

SW872 = test system: SW872
Outline: as §1

SW684 = test system: SW684
Outline: as §1

RD-ES = test system: RD-ES
Outline: as §1

A204 = test system: A204
Outline: as §1

SK-ES-1 = test system: SK-ES-1
Outline: as §1

Cc1c2oc3c(C)ccc(C(=O)N[C@@H]4C(=O)N[C@H](C(C)C)C(=O)N5CCC[C@H]5C(=O)N(C)CC(=O)N(C)[C@@H](C(C)C)C(=O)O[C@@H]4C)c3nc-2c(C(=O)N[C@@H]2C(=O)N[C@H](C(C)C)C(=O)N3CCC[C@H]3C(=O)N(C)CC(=O)N(C)[C@@H](C(C)C)C(=O)O[C@@H]2C)c(N)c1=O [Dactinomycin]
Settings	relative viability
A204, 0.00017 µM	1.02
A204, 0.00051 µM	0.99
A204, 0.00152 µM	0.641
A204, 0.00457 µM	0.393
A204, 0.01372 µM	0.277
A204, 0.04115 µM	0.234
A204, 0.1235 µM	0.193
A204, 0.3704 µM	0.201
A204, 1.111 µM	0.169
A204, 3.333 µM	0.161
A204, 10 µM	0.168
G401, 0.00017 µM	0.948
G401, 0.00051 µM	0.877
G401, 0.00152 µM	0.652
G401, 0.00457 µM	0.441
G401, 0.01372 µM	0.279
G401, 0.04115 µM	0.211
G401, 0.1235 µM	0.155
G401, 0.3704 µM	0.118
G401, 1.111 µM	0.087
G401, 3.333 µM	0.0667
G401, 10 µM	0.0642
HT1080, 0.00017 µM	1.02
HT1080, 0.00051 µM	1.04
HT1080, 0.00152 µM	0.9913
HT1080, 0.00457 µM	0.712
HT1080, 0.01372 µM	0.553
HT1080, 0.04115 µM	0.391
HT1080, 0.1235 µM	0.185
HT1080, 0.3704 µM	0.171
HT1080, 1.111 µM	0.137
HT1080, 3.333 µM	0.128
HT1080, 10 µM	0.129
KHOS-240S, 0.00017 µM	1.04
KHOS-240S, 0.00051 µM	1.06
KHOS-240S, 0.00152 µM	0.864
KHOS-240S, 0.00457 µM	0.73
KHOS-240S, 0.01372 µM	0.499
KHOS-240S, 0.04115 µM	0.202
KHOS-240S, 0.1235 µM	0.0803
KHOS-240S, 0.3704 µM	0.0989
KHOS-240S, 1.111 µM	0.0816
KHOS-240S, 3.333 µM	0.0805
KHOS-240S, 10 µM	0.0884
KHOS-NP, 0.00017 µM	1.06
KHOS-NP, 0.00051 µM	1.07
KHOS-NP, 0.00152 µM	1.08
KHOS-NP, 0.00457 µM	1.04
KHOS-NP, 0.01372 µM	0.63
KHOS-NP, 0.04115 µM	0.24
KHOS-NP, 0.1235 µM	0.0945
KHOS-NP, 0.3704 µM	0.0744
KHOS-NP, 1.111 µM	0.0665
KHOS-NP, 3.333 µM	0.0513
KHOS-NP, 10 µM	0.0582
RD-ES, 0.00017 µM	1
RD-ES, 0.00051 µM	0.973
RD-ES, 0.00152 µM	0.943
RD-ES, 0.00457 µM	0.88
RD-ES, 0.01372 µM	0.621
RD-ES, 0.04115 µM	0.0824
RD-ES, 0.1235 µM	0.00823
RD-ES, 0.3704 µM	-0.00353
RD-ES, 1.111 µM	-0.00503
RD-ES, 3.333 µM	-0.00297
RD-ES, 10 µM	0.00427
SK-ES-1, 0.00017 µM	1.03
SK-ES-1, 0.00051 µM	0.976
SK-ES-1, 0.00152 µM	0.694
SK-ES-1, 0.00457 µM	0.423
SK-ES-1, 0.01372 µM	0.251
SK-ES-1, 0.04115 µM	0.00443
SK-ES-1, 0.1235 µM	-0.00147
SK-ES-1, 0.3704 µM	-0.0034
SK-ES-1, 1.111 µM	-0.0043
SK-ES-1, 3.333 µM	-0.00447
SK-ES-1, 10 µM	0.0007
SW684, 0.00017 µM	1.13
SW684, 0.00051 µM	1.16
SW684, 0.00152 µM	1.09
SW684, 0.00457 µM	0.992
SW684, 0.01372 µM	0.835
SW684, 0.04115 µM	0.687
SW684, 0.1235 µM	0.763
SW684, 0.3704 µM	0.775
SW684, 1.111 µM	0.795
SW684, 3.333 µM	0.816
SW684, 10 µM	0.766
SW872, 0.00017 µM	0.96
SW872, 0.00051 µM	0.975
SW872, 0.00152 µM	0.992
SW872, 0.00457 µM	0.943
SW872, 0.01372 µM	0.765
SW872, 0.04115 µM	0.442
SW872, 0.1235 µM	0.171
SW872, 0.3704 µM	0.218
SW872, 1.111 µM	0.189
SW872, 3.333 µM	0.187
SW872, 10 µM	0.199
SW982, 0.00017 µM	1.06
SW982, 0.00051 µM	1.02
SW982, 0.00152 µM	0.858
SW982, 0.00457 µM	0.563
SW982, 0.01372 µM	0.382
SW982, 0.04115 µM	0.234
SW982, 0.1235 µM	0.15
SW982, 0.3704 µM	0.167
SW982, 1.111 µM	0.147
SW982, 3.333 µM	0.142
SW982, 10 µM	0.147
SW1353, 0.00017 µM	0.971
SW1353, 0.00051 µM	0.946
SW1353, 0.00152 µM	0.834
SW1353, 0.00457 µM	0.71
SW1353, 0.01372 µM	0.62
SW1353, 0.04115 µM	0.272
SW1353, 0.1235 µM	0.242
SW1353, 0.3704 µM	0.215
SW1353, 1.111 µM	0.183
SW1353, 3.333 µM	0.15
SW1353, 10 µM	0.1334
SYO-1, 0.00017 µM	0.883
SYO-1, 0.00051 µM	0.888
SYO-1, 0.00152 µM	0.606
SYO-1, 0.00457 µM	0.327
SYO-1, 0.01372 µM	0.259
SYO-1, 0.04115 µM	0.249
SYO-1, 0.1235 µM	0.239
SYO-1, 0.3704 µM	0.29
SYO-1, 1.111 µM	0.292
SYO-1, 3.333 µM	0.298
SYO-1, 10 µM	0.28
